Data reported in US9828350B2, “5,6-dihydro-2H-[1,4]oxazin-3-yl-amine derivatives useful as inhibitors of beta-secretase (BACE)” (Janssen Pharmaceutica NV, priority 2010, dated 2017).
Like-named read-outs stand apart in the source and are kept apart here.

What was measured:
Abeta total = assay: Cellular αLisa assay in SKNBE2 cells, Abeta total; type: cell-based, human; conditions: Homo sapiens, SKNBE2, 18 h, incubated for 18 hours, read-out: Cellular αLisa assay in SKNBE2 cells Abetatotal pIC50 (converted)
In short: (§1)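 Secreted Abeta levels were measured by sandwich αLisa, pairing biotin-AbN/25 donor beads with Ab4G8 acceptor beads for total Abeta or cAb42/26 for Abeta 1-42, read at 615 nm after 650 nm excitation following 1 hour. Cells were SKNBE2 expressing wild-type hAPP695, exposed to compound for 18 hours.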

Abeta 1-42 = assay: Cellular αLisa assay in SKNBE2 cells, Abeta 1-42; type: cell-based, human; conditions: Homo sapiens, SKNBE2, 18 h, incubated for 18 hours, read-out: Cellular αLisa assay in SKNBE2 cells Abeta 42 pIC50 (converted)
In short: as §1

Aβtotal = assay: Demonstration of in vivo efficacy, brain Aβtotal lowering (ELISA); conditions: mouse brain, 30 mpk, s.c., 4 h
Text: To determine whether acute administration of an Aβ42 peptide lowering agent would reduce Aβ peptide levels in vivo, non-transgenic rodents, e.g. mice or rats were used. Animals treated with the Aβ peptide lowering agent were examined and compared to those untreated or treated with vehicle and brain levels of soluble Aβ42 and total Aβ were quantitated by standard techniques, for example, using ELISA.
A typical protocol for measuring Aβ42 lowering in vivo is shown but it is only one of many variations that could be used to optimize the levels of detectable Aβ. For example, Aβ peptide lowering compounds were formulated in 20% hydroxypropyl 3 cyclodextrin. The Aβ peptide lowering agents were administered as a single oral dose (p.o.) or a single subcutaneous dose (s.c.) to overnight fasted animals. After a certain time, usually 2 or 4 h (as indicated in Table 19), the animals were sacrificed and Aβ42 levels were analysed.
Blood was collected by decapitation and exsanguinations in EDTA-treated collection tubes. Blood was centrifuged at 1900 g for 10 minutes (min) at 4° C. and the plasma recovered and flash frozen for later analysis. The brain was removed from the cranium and hindbrain. The cerebellum was removed and the left and right hemisphere were separated. The left hemisphere was stored at −18° C. for quantitative analysis of test compound levels. The right hemisphere was rinsed with phosphate-buffered saline (PBS) buffer and immediately frozen on dry ice and stored at −80° C. until homogenization for biochemical assays.
Mouse brains from non-transgenic animals were resuspended in 8 volumes of 0.4% DEA (diethylamine)/50 mM NaCl containing protease inhibitors (Roche-11873580001 or 04693159001) per gram of tissue, e.g. for 0.158 g brain, add 1.264 ml of 0.4% DEA. All samples were homogenized in the FastPrep-24 system (MP Biomedicals) using lysing matrix D (MPBio #6913-100) at 6 m/s for 20 seconds. Homogenates were centrifuged at 221.300×g for 50 min. The resulting high speed supernatants were then transferred to fresh eppendorf tubes. Nine parts of supernatant were neutralized with 1 part 0.5 M Tris-HCl pH 6.8 and used to quantify Aβtotal and Aβ42.
To quantify the amount of Aβtotal and Aβ42 in the soluble fraction of the brain homogenates, Enzyme-Linked-Immunosorbent-Assays were used. Briefly, the standards (a dilution of synthetic Aβ1-40 and Aβ1-42, Bachem) were prepared in 1.5 ml Eppendorf tube in Ultraculture, with final concentrations ranging from 10000 to 0.3 pg/ml. The samples and standards were co-incubated with HRPO-labelled N-terminal antibody for Aβ42 detection and with the biotinylated mid-domain antibody 4G8 for Aβtotal detection. […] The plate was allowed to incubate overnight at 4° C. in order to allow formation of the antibody-amyloid complex. Following this incubation and subsequent wash steps the ELISA for Aβ42 quantification was finished by addition of Quanta Blu fluorogenic peroxidase substrate according to the manufacturer's instructions (Pierce Corp., Rockford, Ill.). A reading was performed after 10 to 15 min (excitation 320 nm/emission 420 nm).
For Aβtotal detection, a Streptavidine-Peroxidase-Conjugate was added, followed 60 min later by an additional wash step and addition of Quanta Blu fluorogenic peroxidase substrate according to the manufacturer's instructions (Pierce Corp., Rockford, Ill.). A reading was performed after 10 to 15 min (excitation 320 nm/emission 420 nm).

[1] = Single dose pharmacology in the Beagle dog, pharmacokinetic (PK) follow up; type: in vivo; conditions: single dose 20 mg/kg; for concentration at 24 h: both sexes
Method: Single Dose Pharmacology in the Beagle Dog
Compound 86 was tested to evaluate the effect on the beta-amyloid profile in cerebrospinal fluid (CSF) of dogs after a single dose, in combination with pharmacokinetic (PK) follow up and limited safety evaluation. 6 Beagle dogs (3 male, 3 female) were dosed with vehicle (4 ml/kg of an aqueous suspension of 20% cyclodextrin and Tween) and 6 Beagle dogs (3 male, 3 female) were dosed with compound 86 (20 mg/kg in 2 ml/kg of an aqueous 20% cyclodextrin solution) on an empty stomach. CSF was taken in conscious animals directly from the lateral ventricle via a cannula which was screwed in the skull and covered with subcutaneous tissue and skin, before and at 4, 8 and 24 hours after dosing. 8 Hours after dosing the animals got access to their regular meal for 30 minutes. Blood was taken for PK follow up (0.5, 1, 2, 4, 8 and 24 hours) and at the time of the CSF sampling, samples for serum analysis were taken. An additional sample for serum analysis was taken 10 days after dosing. The CSF samples were used for measurement of Abeta 1-37, Abeta 1-38, Abeta 1-40 and Abeta 1-42.

Abeta 1-37 = conditions: Beagle dog, single dose 20 mg/kg, at 24 h
Abeta 1-38 = conditions: 20 mg/kg, 24 h

IC50 (Abeta total): 6.17 nM
IC50 (Abeta 1-42): 6.92 nM
concentration at 24 h ([1]; CSF, at 24 h, read-out: CSF levels): 45 ng/mL
concentration at 24 h ([1]; plasma, up to at least 24 h post dosing, read-out: plasma levels): 1440 ng/mL
clearance [1]: slow clearance
Structure (SMILES): C[C@]1(c2cccc(NC(=O)c3ccc(Cl)cn3)c2)N=C(N)CO[C@@H]1F (single isomer, unassigned) [Compound 86, (R*,R*)—N-[3-(5-amino-2-fluoro-3-methyl-3,6-dihydro-2H-1,4-oxazin-3-yl)phenyl]-5-chloropyridine-2-carboxamide]
Aβtotal (% Ctrl)_Mean (Aβtotal): 55 % Ctrl
decrease in Abeta 1-37 in CSF compared to own baseline (Abeta 1-37): 72%
decrease in Abeta 1-38 in CSF compared to own baseline (Abeta 1-38): > 90%
